Experiment [1] concerns the target T1, human Endothelial Differentiation G-protein Coupled Receptor 3 (EDG3), S1P3 receptor (Homo sapiens, UniProt Q99500).
T1 construct: expressed in transfected cells; host or cells: GeneBLAzer EDG3-Ga15-NFAT-bla HEK 293T
The experiment can be described thus: S1P3 Assay (GeneBLAzer EDG3-Ga15-NFAT-bla HEK 293T beta-lactamase reporter, agonist dose response). The class given is cell-based. As to conditions: EDG3-Ga15-NFAT-bla HEK 293T cells, blue/green emission ratio, 10 point dose response, free base or salt form; read-out: pEC50 (S1P3 assay) (converted). Here is the method:
GeneBLAzer EDG3-Ga15-NFAT-bla HEK 293T cells (contain the human Endothelial Differentiation G-protein Coupled Receptor 3 (EDG3) and a beta-lactamase reporter gene under control of a NFAT response element and a promiscuous G Protein, Ga15, stably integrated into the GeneBLAzer Ga15-NFAT-bla HEK 293T cell line) were harvested from growth medium and suspended in assay medium (90% DMEM, 10% Charcoal-stripped FBS, 0.1 mM NEAA, 25 mM HEPES (pH 7.3), 100 U/ml penicillin, 100 μg/ml streptomycin) at a density of […]. All test compounds were dissolved in DMSO at a concentration of 10 mM and were prepared in 100% DMSO to provide 10 point dose response curves. Test compounds in the free base or in a salt form were prepared by Velocity 11 Bravo automation (Agilent) were added to wells in columns 2-11 and 13-22; DMSO was added to wells in columns 12 and 23 as unstimulated controls and assay medium was added to wells in columns 1 and 24 as cell-free controls. An S1P3 agonist was added to wells in row 2, columns 2-11 as stimulated controls and test compounds were added to wells in row 2, columns 13-22 and rows 3-15, columns 2-11/13-22 (row 1 and 16 were empty and not used). Compounds in solution were added to the assay plate (Greiner 781090) using an Echo (Labcyte) dose-response program (50 nl/well). The unstimulated and cell-free controls were loaded with 50 nl/well pure DMSO to ensure that the DMSO concentration was constant across the plate for all assays.
50 μl of the cell suspension was added to each well in columns 2-23 of the plate (˜10,000 cells per well). 50 μl of assay medium was added to each well in the cell-free controls (columns 1 and 24). The cells were incubated overnight at 37° C./5% CO2.
(§1) 10 μl of 6× substrate mixture (LiveBLAzer™-FRET B/G substrate (CCF4-AM) Cat # K1096 from Invitrogen, Inc.) was added to each well using Bravo automation and the plates incubated at room temperature for 2 h in the dark. The plate was finally read on EnVision using one excitation channel (409 nm) and two emission channels (460 nm and 530 nm).
(§2) The blue/green emission ratio (460 nm/530 nm) was calculated for each well, by dividing the background-subtracted Blue emission values by the background-subtracted Green emission values. The dose response curve is based on sigmoidal dose-response model. All ratio data was normalized based upon the maximum emission ratio of positive control and minimum emission ratio of negative control (DMSO) on each plate. The intrinsic activity (IA) of each compound is defined as relative response normalised to a reference compound, whose maximum response is defined as 100% after curve fitting.

Experiment [2] concerns the target T2, human Endothelial Differentiation Gene 1 (EDG1), S1P1 receptor (Homo sapiens, UniProt P21453).
T2 construct: TEV protease site; Gal4-VP16 transcription factor; expressed in transfected cells; host or cells: EDG1-bla/U2OS (Tango GPCR-bla U2OS parental cell line)
Kind of experiment: S1P1 Assay (Tango EDG1-bla/U2OS beta-lactamase reporter, agonist dose response). It is filed as cell-based. As to conditions: EDG1-bla/U2OS cells, blue/green emission ratio, 10 point dose response, free base or salt form; read-out: pEC50 (S1P1 assay) (converted). Here is the method: Recombinant EDG1-bla/U2OS cells (contain the human Endothelial Differentiation Gene 1 (EDG1) linked to a TEV protease site and a Gal4-VP16 transcription factor stably integrated into the Tango GPCR-bla U2OS parental cell line) were harvested from growth medium and passaged into assay medium (Invitrogen Freestyle Expression Medium). The cells were starved for 24 hours at 37° C., 5% CO2, harvested and resuspended in assay medium at a density of ˜200,000 cells/ml. All test compounds were dissolved in DMSO at a concentration of 10 mM and were prepared in 100% DMSO to provide 10 point dose response curves. Test compounds in the free base or in a salt form were prepared by Velocity11 Bravo automation (Agilent) were added to wells in columns 2-11 and 13-22; DMSO was added to wells in columns 12 and 23 as unstimulated controls and assay medium was added to wells in columns 1 and 24 as cell-free controls. An S1P1 agonist was added to wells in row 2, columns 2-11 as stimulated controls and test compounds were added to wells in row 2, columns 13-22 and rows 3-15, columns 2-11/13-22 (row 1 and 16 were empty and not used). Compounds in solution were added to the assay plate (Greiner 781090) using an Echo (Labcyte) dose-response program (50 nl/well). The unstimulated and cell-free controls were loaded with 50 nl/well pure DMSO to ensure that the DMSO concentration was constant across the plate for all assays. 50 μl of the cell suspension was added to each well in columns 2-23 of the plate (˜10,000 cells per well). 50 μl of assay medium was added to each well in the cell-free controls (columns 1 and 24). The cells were incubated overnight at 37° C./5% CO2.
as §1, §2

Data on 21 compounds can be found in patent US8389508B2 (Glaxo Group Limited, priority 2010, dated 2013).

The structures appear in SMILES notation. Where a name gives a salt, the structure may show the parent alone.

T2 sequence (P21453 whole entry, the tested form may be a part): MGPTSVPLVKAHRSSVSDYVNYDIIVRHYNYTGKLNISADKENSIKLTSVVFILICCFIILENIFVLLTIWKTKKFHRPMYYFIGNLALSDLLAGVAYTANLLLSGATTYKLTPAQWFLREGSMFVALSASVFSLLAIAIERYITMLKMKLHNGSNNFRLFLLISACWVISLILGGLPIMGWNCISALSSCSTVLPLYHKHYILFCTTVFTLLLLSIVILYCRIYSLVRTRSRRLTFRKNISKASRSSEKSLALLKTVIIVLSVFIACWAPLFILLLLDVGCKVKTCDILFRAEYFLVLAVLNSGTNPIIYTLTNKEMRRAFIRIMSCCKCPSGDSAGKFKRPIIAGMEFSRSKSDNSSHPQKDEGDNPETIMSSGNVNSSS
T1 sequence (Q99500 whole entry): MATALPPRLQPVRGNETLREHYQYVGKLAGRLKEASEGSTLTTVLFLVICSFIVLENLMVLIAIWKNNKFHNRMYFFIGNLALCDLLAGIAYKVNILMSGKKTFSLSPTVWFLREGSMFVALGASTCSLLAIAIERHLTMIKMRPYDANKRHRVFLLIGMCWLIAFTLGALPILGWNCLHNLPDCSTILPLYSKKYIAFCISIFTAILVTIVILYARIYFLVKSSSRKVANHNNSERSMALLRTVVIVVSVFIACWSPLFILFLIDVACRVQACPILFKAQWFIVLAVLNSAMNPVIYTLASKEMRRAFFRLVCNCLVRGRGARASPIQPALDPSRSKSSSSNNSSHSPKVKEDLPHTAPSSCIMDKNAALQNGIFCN

Take `CCc1c(CN2CCC(C(=O)O)CC2)cccc1-c1cnc(-c2ccc(OC(C)C)c(C(F)(F)F)c2)s1` [Example 32, 1-[(2-ethyl-3-{2-[4-[(1-methylethyl)oxy]-3-(trifluoromethyl)phenyl]-1,3-thiazol-5-yl}phenyl)methyl]-4-piperidinecarboxylic acid]: the figures for the EC50 in experiment [1] and in experiment [2] were above 3160 nM and below 1 nM, respectively.

Turning to `COc1c(CCN2CC(C(=O)O)C2)cc(F)cc1-c1cnc(-c2ccc(OC(C)C)c(Cl)c2)s1` [Example 33, 1-{2-[3-(2-{3-chloro-4-[(1-methylethyl)oxy]phenyl}-1,3-thiazol-5-yl)-5-fluoro-2-(methyloxy)phenyl]ethyl}-3-azetidinecarboxylic acid trifluoroacetate], the EC50 in experiment [1] is above 3160 nM; in experiment [2] it was below 1 nM.

As for `CCc1c(CCN2CC(C(=O)O)C2)cccc1-c1cnc(-c2ccc(OC(C)C)c(C#N)c2)s1` [Example 34, 1-{2-[3-(2-{3-cyano-4-[(1-methylethyl)oxy]phenyl}-1,3-thiazol-5-yl)-2-ethylphenyl]ethyl}-3-azetidinecarboxylic acid trifluoroacetate], the EC50 in experiment [1] was above 3160 nM; in experiment [2] it was below 1 nM.

As to `CCc1c(CN2CCC(C(=O)O)CC2)cccc1-c1cnc(-c2ccc(OC(C)C)c(Cl)c2)s1` [Example 36, 1-{[3-(2-{3-chloro-4-[(1-methylethyl)oxy]phenyl}-1,3-thiazol-5-yl)-2-ethylphenyl]methyl}-4-piperidinecarboxylic acid trifluoroacetate], the EC50 in experiment [1] is above 10000 nM; in experiment [2] it was below 100 nM.

Take `CCc1c(CCN2CCC(C(=O)O)CC2)cccc1-c1cnc(-c2ccc(OC(C)C)c(C#N)c2)s1` [Example 37, 1-{2-[3-(2-{3-cyano-4-[(1-methylethyl)oxy]phenyl}-1,3-thiazol-5-yl)-2-ethylphenyl]ethyl}-4-piperidinecarboxylic acid trifluoroacetate]: the figures for the EC50 in experiment [1] and in experiment [2] were 933 nM and below 1 nM, respectively.

With `CCc1c(CN2CC(C(=O)O)C2)cccc1-c1cnc(-c2ccc(OC(C)C)c(C#N)c2)s1` [Example 38, 1-{[3-(2-{3-cyano-4-[(1-methylethyl)oxy]phenyl}-1,3-thiazol-5-yl)-2-ethylphenyl]methyl}-3-azetidinecarboxylic acid trifluoroacetate], the EC50 is above 10000 nM in experiment [1] and below 1 nM in experiment [2].

With `CCc1c(CN2CC(C(=O)O)C2)cccc1-c1cnc(-c2ccc(OC(C)C)c(Cl)c2)s1` [Example 39, 1-{[3-(2-{3-chloro-4-[(1-methylethyl)oxy]phenyl}-1,3-thiazol-5-yl)-2-ethylphenyl]methyl}-3-azetidinecarboxylic acid trifluoroacetate], the EC50 in experiment [1] was above 10000 nM; in experiment [2], below 1 nM.

Turning to `CCc1c(CCN2CC(C(=O)O)C2)cccc1-c1cnc(-c2ccc(OC(C)C)c(Cl)c2)s1` [Example 41, 1-{2-[3-(2-{3-chloro-4-[(1-methylethyl)oxy]phenyl}-1,3-thiazol-5-yl)-2-ethylphenyl]ethyl}-3-azetidinecarboxylic acid trifluoroacetate], the EC50 is above 3160 nM in experiment [1] and below 1 nM in experiment [2].

`CCc1c(CN2CCC(C(=O)O)CC2)cccc1-c1cnc(-c2ccc(CC(C)C)c(C#N)c2)s1` [Example 42, 1-[(3-{2-[3-cyano-4-(2-methylpropyl)phenyl]-1,3-thiazol-5-yl}-2-ethylphenyl)methyl]-4-piperidinecarboxylic acid trifluoroacetate]: the EC50 was above 10000 nM in experiment [1] and at most 10 nM in experiment [2].

Consider `CCc1c(CN2CC(C(=O)O)C2)cccc1-c1cnc(-c2ccc(CC(C)C)c(C#N)c2)s1` [Example 43, 1-[(3-{2-[3-cyano-4-(2-methylpropyl)phenyl]-1,3-thiazol-5-yl}-2-ethylphenyl)methyl]-3-azetidinecarboxylic acid trifluoroacetate], for which the EC50 in experiment [1] was above 3160 nM; in experiment [2] it was below 1 nM.

For `CCc1c(CN2CCC(C(=O)O)C2)cccc1-c1nnc(-c2ccc(OC(C)C)c(Cl)c2)s1` (stereo not drawn) [Example 44, 1-{[3-(5-{3-chloro-4-[(1-methylethyl)oxy]phenyl}-1,3,4-thiadiazol-2-yl)-2-ethylphenyl]methyl}-3-pyrrolidinecarboxylic acid trifluoroacetate], the EC50 was above 3160 nM in experiment [1] and at most 10 nM in experiment [2].

For the compound `CCc1c(CN2CCCC(C(=O)O)C2)cccc1-c1nnc(-c2ccc(OC(C)C)c(Cl)c2)s1` (stereo not drawn) [Example 46], the EC50 was above 10000 nM in experiment [1] and below 100 nM in experiment [2].

With `CCc1c(CN2CCC[C@H](C(=O)O)C2)cccc1-c1nnc(-c2ccc(OC(C)C)c(Cl)c2)s1` [Example 47], the EC50 in experiment [1] was above 10000 nM; in experiment [2], at most 10 nM.

In the case of `CCc1c(CN2CCC(C(=O)O)C2)cccc1-c1nnc(-c2ccc(CC(C)C)c(C#N)c2)s1` (stereo not drawn) [Example 48, 1-[(3-{5-[3-cyano-4-(2-methylpropyl)phenyl]-1,3,4-thiadiazol-2-yl}-2-ethylphenyl)methyl]-3-pyrrolidinecarboxylic acid], the EC50 in experiment [1] is above 3160 nM; in experiment [2], below 1 nM.

Consider `CCc1c(CN2CCCC(C(=O)O)C2)cccc1-c1nnc(-c2ccc(CC(C)C)c(C#N)c2)s1` (stereo not drawn) [Example 50], for which the EC50 in experiment [1] was above 10000 nM; in experiment [2], at most 10 nM.

With `CCc1c(CN2CCC[C@H](C(=O)O)C2)cccc1-c1nnc(-c2ccc(CC(C)C)c(C#N)c2)s1` [Example 51], the EC50 was above 10000 nM in experiment [1] and below 1 nM in experiment [2].

As to `CCc1c(CCN2CCC[C@H]2C(=O)O)cccc1-c1nnc(-c2ccc(OC(C)C)c(Cl)c2)s1` [Example 52], the figures for the EC50 in experiment [1] and in experiment [2] were above 10000 nM and below 100 nM, respectively.

Regarding `CCc1c(CCN2C[C@H](O)C[C@H]2C(=O)O)cccc1-c1nnc(-c2ccc(OC(C)C)c(Cl)c2)s1` [Example 55], the figures for the EC50 in experiment [1] and in experiment [2] were above 10000 nM and at most 10 nM, respectively.

Take `CCc1c(CCN2CCCC(C(=O)O)C2)cccc1-c1nnc(-c2ccc(OC(C)C)c(Cl)c2)s1` (stereo not drawn) [Example 56]: the figures for the EC50 in experiment [1] and in experiment [2] were above 3160 nM and below 1 nM, respectively.

As to `CCc1c(CCN2CCC[C@H](C(=O)O)C2)cccc1-c1nnc(-c2ccc(OC(C)C)c(Cl)c2)s1` [Example 57], the EC50 in experiment [1] was above 3160 nM; in experiment [2], below 1 nM.

`Cc1c(CCN2CCC(C(=O)O)CC2)cccc1-c1nnc(-c2ccc(OC(C)C)c(Cl)c2)s1` [Example 58, 1-{2-[3-(5-{3-chloro-4-[(1-methylethyl)oxy]phenyl}-1,3,4-thiadiazol-2-yl)-2-methylphenyl]ethyl}-4-piperidinecarboxylic acid]: the EC50 in experiment [1] was above 3160 nM; in experiment [2] it was at most 10 nM.
